Reference: paper PMC7887755, “Structure–Activity Relationships of Pyrazolo[1,5-a]pyrimidin-7(4H)-ones as Antitubercular Agents” (ACS Infectious Diseases, 2021)
Converted amounts (≈) assume the structure as drawn. “And” between values parts separate entries of the source, which are not always exact repeats. Identical values can stand only once.

Columns and labels:
P19^R strain rv1751 V96L = type: cell-based, Mycobacterium tuberculosis
[1] = test system: P19^R strain rv1751 L250Q; type: cell-based, Mycobacterium tuberculosis
[2] = test system: P19^R strain rv1751 H97Y/N; type: cell-based, Mycobacterium tuberculosis
[3] = test system: P19^R strain rv1751 P152S; type: cell-based, Mycobacterium tuberculosis
[4] = test system: P19^R strain rv1751 L399W; type: cell-based, Mycobacterium tuberculosis
[5] = test system: Mtb strain H37Rv cydC::aph; type: cell-based, Mycobacterium tuberculosis
[6] = test system: P19^R strain rv1751 A434T; type: cell-based, Mycobacterium tuberculosis

| SMILES | MIC V96L (P19^R strain rv1751 V96L) [µM] | fold change V96L (P19^R strain rv1751 V96L) | MIC L250Q [1] [µM] | fold change L250Q [1] | MIC H97Y/N [2] [µM] | fold change H97Y/N [2] | MIC P152S [3] [µM] | fold change P152S [3] | MIC L399W [4] [µM] | fold change L399W [4] | MIC CydKO [5] [µM] | MIC A434T [6] [µM] | fold change A434T [6] | frequency of resistant clones (Mtb H37Rv) |
| --- | --- | --- | --- | --- | --- | --- | --- | --- | --- | --- | --- | --- | --- | --- |
| COc1ccc(-c2cc(=O)n3nc(C)c(-c4ccc(F)cc4)c3[nH]2)cc1 [Compound 4, 3-(4-Fluorophenyl)-5-(4-methoxyphenyl)-2-methylpyrazolo[1,5-a]pyrimidin-7(4H)-one, reference compound] | 2.3 (≈ 0.804 µg/mL) | 1.5 | 4.7 (≈ 1.64 µg/mL) | 3 | 1.56 (≈ 0.545 µg/mL) | 1 | 2.3 (≈ 0.804 µg/mL) | 1.5 | 3.13 (≈ 1.09 µg/mL) | 2 | 9.40 (≈ 3.28 µg/mL) | 2.3 (≈ 0.804 µg/mL) | 1.5 | – |
| Cc1nn2c(=O)cc(-c3ccccc3)[nH]c2c1-c1ccccc1 [Compound 1, 2-Methyl-3,5-diphenylpyrazolo[1,5-a]pyrimidin-7(4H)-one] | 2.3 (≈ 0.693 µg/mL) | 2 | 3.13 (≈ 0.943 µg/mL) | 2.6 | 1.56 (≈ 0.47 µg/mL) | 1.3 | 2.3 (≈ 0.693 µg/mL) | 2 | 12.5 (≈ 3.77 µg/mL) | 10 | 12.5 (≈ 3.77 µg/mL) | 1.56 (≈ 0.47 µg/mL) | 1.3 | – |
| NNC(=O)c1ccncc1 [INH, isoniazid, reference compound] | 0.04 (≈ 0.00549 µg/mL) | – | 0.04 (≈ 0.00549 µg/mL) | – | 0.04 (≈ 0.00549 µg/mL) | – | 0.04 (≈ 0.00549 µg/mL) | – | 0.04 (≈ 0.00549 µg/mL) | – | 0.30 (≈ 0.0411 µg/mL) | 0.04 (≈ 0.00549 µg/mL) | – | – |
| Cc1nn2c(=O)cc(-c3ccc(F)c(F)c3)[nH]c2c1-c1ccccc1 [Compound P19, 5-(3,4-Difluorophenyl)-2-methyl-3-phenylpyrazolo[1,5-a]pyrimidin-7(4H)-one] | 2.3 (≈ 0.776 µg/mL) | 3 | 2.3 (≈ 0.776 µg/mL) | 3 | 1.56 (≈ 0.526 µg/mL) | 2 | 1.56 (≈ 0.526 µg/mL) | 2 | 12.5 (≈ 4.22 µg/mL) | 16 | 3.13 (≈ 1.06 µg/mL) | 1.56 (≈ 0.526 µg/mL) | 2 | 3 × 10^–8 and 4 × 10^–9 |
| O=c1cc(CC2CCCCC2)[nH]c2c(-c3ccc(Cl)cc3)cnn12 [Compound 2, 3-(4-Chlorophenyl)-5-(cyclohexylmethyl)pyrazolo[1,5-a]pyrimidin-7(4H)-one, reference compound] | 1.2 (≈ 0.41 µg/mL) | 3 | 1.2 (≈ 0.41 µg/mL) | 3 | 0.39 (≈ 0.133 µg/mL) | 1 | 1.2 (≈ 0.41 µg/mL) | 3 | 0.39 (≈ 0.133 µg/mL) | 1 | 25.0 (≈ 8.55 µg/mL) | 1.2 (≈ 0.41 µg/mL) | 3 | – |
| Cc1nn2c(=O)cc(-c3ccc(Cl)c(Cl)c3)[nH]c2c1-c1ccc(F)cc1 [Compound P24, 5-(3,4-Dichlorophenyl)-3-(4-fluorophenyl)-2-methylpyrazolo[1,5-a]pyrimidin-7(4H)-one] | 7.82 (≈ 3.04 µg/mL) | 5 | 6.26 (≈ 2.43 µg/mL) | 4 | 6.25 (≈ 2.43 µg/mL) | 4 | 3.90 (≈ 1.51 µg/mL) | 2.5 | 18.8 (≈ 7.3 µg/mL) | 12 | – | 3.12 (≈ 1.21 µg/mL) | 2 | – |
